Reference: US9518052B2, “Pyrazolopyridines and pyrazolopyrimidines” (Pfizer Inc., priority 2014, dated 2016)

Key:
[1] = tested on: rhIFNγ stimulated STAT-3 phosphorylation in the A549 human epithelial cell line; assay: A549 Cell Assay: Inhibition of pSTAT3; assay type: cell-based; details: A549 cells
Procedure: A549 Cell Assay: Inhibition of pSTAT3
An assay measuring the efficacy of JAK inhibitors on the functional response of recombinant human interferon γ (rhIFNγ) stimulated STAT-3 phosphorylation in the A549 human epithelial cell line.
A549 cells (ATCC #CCL-185), were plated at 30,000 cells/well in 96 well flat bottomed tissue culture plates (BD#353072) in 200 μL of growth medium (DMEM, Pfizer media prep, with 10% Fetal Bovine Serum, Sigma #F4135, 2 mM L-Glutamine, Pfizer media prep, 100 U/mL penicillin, Pfizer media prep, and 200 μg/ml streptomycin, Pfizer media prep), and cultured at 37° C., 5% CO2 incubator for 18 hours. Growth medium was removed by vacuum aspiration (V&P Scientific #vp187 bp-60), and 90 μL of pre-warmed assay medium (DMEM with 0.2% BSA, Miltenyi #130-091-376) was added to each well and incubated for 15 minutes at 37° C. 10 μL of vehicle control or test compound (final concentration range of 0.3 nM to 10 μM with 0.1% DMSO) was added to the cells. Plates were incubated at 37° C. for 1 hour. After compound incubation, 10 μL of 220 ng/mL recombinant human IFNγ (R&D Systems #285-IF, final rhIFNγ concentration of 20 ng/mL) was added to the cells and plates were incubated for 30 minutes at 37° C. Wells containing A549 cells, medium with 0.1% DMSO and no rhIFNγ were used as background controls. After rhIFNγ stimulation, media was aspirated from each well and 35 μL/well of iced-cold MSD lysis buffer containing protease and phosphatase inhibitors from Phospho-STAT3 Tyr705 assay kit (Meso-Scale Discovery #K150DID) was added to each well. Plates were incubated at 4° C. with shaking for 30 minutes. Cell lysates were assayed following the MSD Phospho-STAT3 Tyr705 assay kit protocol to detect pSTAT3.
Data were collected and transformed into percent inhibition and calculated using the following formula: […]

JAK1 = JAK1 (Homo sapiens (Human), UniProt P23458); assay: JAK Caliper Enzyme Assay at 1 mM ATP (JAK1); assay type: biochemical; details: Caliper assay at 1 mM ATP
Sequence of JAK1 (P23458 whole entry, species assumed): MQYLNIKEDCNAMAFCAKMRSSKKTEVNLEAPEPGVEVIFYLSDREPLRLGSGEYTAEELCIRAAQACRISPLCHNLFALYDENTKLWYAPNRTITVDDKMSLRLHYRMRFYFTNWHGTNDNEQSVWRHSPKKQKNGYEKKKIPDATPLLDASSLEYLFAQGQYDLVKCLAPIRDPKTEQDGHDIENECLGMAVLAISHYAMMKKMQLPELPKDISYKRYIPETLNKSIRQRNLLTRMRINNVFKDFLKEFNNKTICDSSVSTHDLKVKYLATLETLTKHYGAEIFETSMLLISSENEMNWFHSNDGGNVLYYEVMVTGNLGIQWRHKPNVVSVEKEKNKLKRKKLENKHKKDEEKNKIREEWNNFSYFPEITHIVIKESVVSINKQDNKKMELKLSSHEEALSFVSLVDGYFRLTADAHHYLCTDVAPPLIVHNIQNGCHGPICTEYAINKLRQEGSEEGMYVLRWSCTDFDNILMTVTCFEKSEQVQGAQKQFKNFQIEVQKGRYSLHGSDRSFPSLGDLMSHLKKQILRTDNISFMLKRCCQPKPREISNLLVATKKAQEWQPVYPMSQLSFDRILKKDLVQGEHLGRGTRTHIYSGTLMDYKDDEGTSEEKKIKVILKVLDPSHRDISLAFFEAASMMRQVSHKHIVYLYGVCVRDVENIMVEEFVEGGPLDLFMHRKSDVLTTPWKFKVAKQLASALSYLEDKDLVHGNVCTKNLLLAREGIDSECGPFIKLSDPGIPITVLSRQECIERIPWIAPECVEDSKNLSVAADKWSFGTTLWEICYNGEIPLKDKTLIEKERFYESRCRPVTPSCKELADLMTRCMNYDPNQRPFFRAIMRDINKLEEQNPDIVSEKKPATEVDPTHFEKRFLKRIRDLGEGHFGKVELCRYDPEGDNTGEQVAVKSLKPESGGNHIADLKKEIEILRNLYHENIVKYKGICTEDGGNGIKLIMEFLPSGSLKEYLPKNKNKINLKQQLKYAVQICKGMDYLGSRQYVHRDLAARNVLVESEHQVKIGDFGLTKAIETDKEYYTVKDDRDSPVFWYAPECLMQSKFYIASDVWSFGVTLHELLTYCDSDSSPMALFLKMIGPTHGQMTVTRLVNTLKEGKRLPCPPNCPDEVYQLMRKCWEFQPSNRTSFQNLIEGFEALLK

JAK2 = JAK2 (Homo sapiens (Human), UniProt O60674); assay: JAK Caliper Enzyme Assay at 1 mM ATP (JAK2); assay type: biochemical; details: Caliper assay at 1 mM ATP
Sequence of JAK2 (O60674 whole entry, species assumed): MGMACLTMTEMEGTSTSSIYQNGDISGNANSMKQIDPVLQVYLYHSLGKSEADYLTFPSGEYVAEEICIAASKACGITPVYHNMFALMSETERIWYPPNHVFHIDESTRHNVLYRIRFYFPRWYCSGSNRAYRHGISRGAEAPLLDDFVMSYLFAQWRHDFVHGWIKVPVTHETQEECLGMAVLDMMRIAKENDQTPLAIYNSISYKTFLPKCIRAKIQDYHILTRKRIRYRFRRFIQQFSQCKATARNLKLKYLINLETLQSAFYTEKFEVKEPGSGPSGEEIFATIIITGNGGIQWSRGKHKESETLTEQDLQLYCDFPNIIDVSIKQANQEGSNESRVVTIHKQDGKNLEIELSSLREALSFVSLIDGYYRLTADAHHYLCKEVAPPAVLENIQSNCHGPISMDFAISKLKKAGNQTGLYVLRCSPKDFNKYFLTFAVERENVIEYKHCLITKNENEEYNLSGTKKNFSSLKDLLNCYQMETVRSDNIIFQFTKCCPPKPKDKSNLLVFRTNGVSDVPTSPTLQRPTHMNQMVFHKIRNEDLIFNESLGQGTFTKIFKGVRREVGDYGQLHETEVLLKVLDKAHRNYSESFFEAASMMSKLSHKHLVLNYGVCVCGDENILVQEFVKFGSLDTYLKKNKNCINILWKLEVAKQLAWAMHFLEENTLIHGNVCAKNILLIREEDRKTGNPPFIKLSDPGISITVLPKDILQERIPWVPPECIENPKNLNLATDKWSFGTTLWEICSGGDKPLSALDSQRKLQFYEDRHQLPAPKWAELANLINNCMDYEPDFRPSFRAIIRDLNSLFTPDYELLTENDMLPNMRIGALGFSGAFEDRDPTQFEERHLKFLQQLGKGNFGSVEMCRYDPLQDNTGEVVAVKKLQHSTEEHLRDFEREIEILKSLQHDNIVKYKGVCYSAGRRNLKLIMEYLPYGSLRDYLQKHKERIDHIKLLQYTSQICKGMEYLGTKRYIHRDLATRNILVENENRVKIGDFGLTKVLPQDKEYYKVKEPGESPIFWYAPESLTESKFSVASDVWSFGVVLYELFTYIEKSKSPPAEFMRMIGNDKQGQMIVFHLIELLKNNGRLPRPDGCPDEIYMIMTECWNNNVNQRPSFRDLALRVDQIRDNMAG

JAK3 = JAK3 (Homo sapiens (Human), UniProt P52333); assay: JAK Caliper Enzyme Assay at 1 mM ATP (JAK3); assay type: biochemical; details: Caliper assay at 1 mM ATP
Sequence of JAK3 (P52333 whole entry, species assumed): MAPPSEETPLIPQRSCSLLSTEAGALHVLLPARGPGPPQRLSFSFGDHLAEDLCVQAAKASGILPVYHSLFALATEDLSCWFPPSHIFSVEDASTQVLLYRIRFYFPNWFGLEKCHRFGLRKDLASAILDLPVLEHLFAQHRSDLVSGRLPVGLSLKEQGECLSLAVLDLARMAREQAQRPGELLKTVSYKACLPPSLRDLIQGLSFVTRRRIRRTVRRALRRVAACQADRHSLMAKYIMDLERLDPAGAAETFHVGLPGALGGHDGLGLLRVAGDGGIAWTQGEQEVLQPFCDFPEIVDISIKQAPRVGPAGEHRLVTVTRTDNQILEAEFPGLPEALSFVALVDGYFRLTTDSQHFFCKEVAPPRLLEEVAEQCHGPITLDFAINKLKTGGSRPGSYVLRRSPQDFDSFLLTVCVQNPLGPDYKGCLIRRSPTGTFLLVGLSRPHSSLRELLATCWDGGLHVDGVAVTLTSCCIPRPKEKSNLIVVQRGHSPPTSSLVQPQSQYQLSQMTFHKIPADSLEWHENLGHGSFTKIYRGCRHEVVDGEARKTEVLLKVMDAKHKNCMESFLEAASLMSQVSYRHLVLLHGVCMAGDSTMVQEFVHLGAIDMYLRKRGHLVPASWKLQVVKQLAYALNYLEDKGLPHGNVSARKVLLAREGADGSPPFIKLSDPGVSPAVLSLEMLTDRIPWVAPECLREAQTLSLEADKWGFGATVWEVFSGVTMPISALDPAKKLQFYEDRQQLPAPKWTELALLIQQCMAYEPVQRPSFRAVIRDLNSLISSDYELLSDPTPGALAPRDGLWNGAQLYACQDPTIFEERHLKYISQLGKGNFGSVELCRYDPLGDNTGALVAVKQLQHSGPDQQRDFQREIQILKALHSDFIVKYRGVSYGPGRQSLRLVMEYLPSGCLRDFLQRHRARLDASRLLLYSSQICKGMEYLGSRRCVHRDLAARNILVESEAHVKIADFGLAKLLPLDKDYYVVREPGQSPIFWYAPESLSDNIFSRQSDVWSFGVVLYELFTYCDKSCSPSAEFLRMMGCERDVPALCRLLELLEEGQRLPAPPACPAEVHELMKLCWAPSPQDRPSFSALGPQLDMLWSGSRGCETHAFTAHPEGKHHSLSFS

TYK2 = TYK2 (Homo sapiens (Human), UniProt P29597); assay: JAK Caliper Enzyme Assay at 1 mM ATP (TYK2); assay type: biochemical; details: Caliper assay at 1 mM ATP
Sequence of TYK2 (P29597 whole entry, species assumed): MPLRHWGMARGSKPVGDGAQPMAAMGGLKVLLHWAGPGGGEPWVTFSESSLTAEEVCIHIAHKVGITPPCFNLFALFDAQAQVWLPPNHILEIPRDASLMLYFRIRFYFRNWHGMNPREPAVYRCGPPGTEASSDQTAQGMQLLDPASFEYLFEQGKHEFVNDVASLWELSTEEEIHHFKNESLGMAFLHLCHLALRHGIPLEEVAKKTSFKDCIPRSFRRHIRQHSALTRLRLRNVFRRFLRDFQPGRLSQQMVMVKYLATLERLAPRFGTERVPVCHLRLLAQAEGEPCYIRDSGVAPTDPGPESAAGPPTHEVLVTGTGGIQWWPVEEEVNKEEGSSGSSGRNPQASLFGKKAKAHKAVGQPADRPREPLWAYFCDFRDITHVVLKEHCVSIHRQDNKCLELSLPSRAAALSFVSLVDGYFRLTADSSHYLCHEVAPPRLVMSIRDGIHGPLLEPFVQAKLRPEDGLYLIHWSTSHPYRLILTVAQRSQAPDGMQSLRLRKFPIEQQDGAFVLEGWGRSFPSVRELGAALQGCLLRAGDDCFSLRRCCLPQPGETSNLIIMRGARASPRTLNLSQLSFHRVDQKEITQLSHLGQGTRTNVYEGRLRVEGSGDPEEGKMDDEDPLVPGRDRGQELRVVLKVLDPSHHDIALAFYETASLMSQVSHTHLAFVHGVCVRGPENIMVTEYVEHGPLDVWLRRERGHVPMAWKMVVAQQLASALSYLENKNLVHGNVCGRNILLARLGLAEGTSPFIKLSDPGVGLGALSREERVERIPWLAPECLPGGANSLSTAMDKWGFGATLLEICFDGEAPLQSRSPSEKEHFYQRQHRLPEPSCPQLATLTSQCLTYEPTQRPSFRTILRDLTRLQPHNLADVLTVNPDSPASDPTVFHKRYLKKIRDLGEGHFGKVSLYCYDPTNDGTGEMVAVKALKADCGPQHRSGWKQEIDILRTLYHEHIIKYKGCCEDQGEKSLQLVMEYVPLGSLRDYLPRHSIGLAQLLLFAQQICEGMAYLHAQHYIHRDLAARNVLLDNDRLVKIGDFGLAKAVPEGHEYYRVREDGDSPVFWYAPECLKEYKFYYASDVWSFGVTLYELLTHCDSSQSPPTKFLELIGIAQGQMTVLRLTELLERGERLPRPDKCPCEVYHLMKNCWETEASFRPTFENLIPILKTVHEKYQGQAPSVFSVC

SMILES	IC50 ([1]; Homo sapiens) [nM]	IC50 (JAK1) [nM]	IC50 (JAK2) [nM]	IC50 (JAK3) [nM]	IC50 (TYK2) [nM]	IC50 [1] [nM]
CNC(=O)c1n[nH]c2nc(-c3cc(F)c(O)cc3CC(F)(F)F)nc(NCc3ccccc3N(CCO)S(C)(=O)=O)c12 [Example 102, 6-(5-fluoro-4-hydroxy-2-(2,2,2-trifluoroethyl)phenyl)-4-((2-(N-(2-hydroxyethyl)methylsulfonamido)benzyl)amino)-N-methyl-1H-pyrazolo[3,4-d]pyrimidine-3-carboxamide]	3360	–	–	–	–	–
CS(=O)(=O)N(CCO)c1ccccc1CNc1nc(-c2cc(F)c(O)cc2CC(F)(F)F)cc2[nH]nc(C(N)=O)c12 [Example 27, 6-[5-fluoro-4-hydroxy-2-(2,2,2-trifluoroethyl)phenyl]-4-({2-[(2-hydroxyethyl)(methylsul-fonyl)amino]benzyl}amino)-1H-pyrazolo[4,3-c]pyridine-3-carboxamide]	–	–	–	–	–	874
CN(c1ccc(O)cc1CNc1nc(-c2cc(F)c(O)cc2CC(F)(F)F)cc2[nH]nc(C(=O)Nc3ccc(NCCO)nc3)c12)S(C)(=O)=O [Example 75, 6-[5-Fluoro-4-hydroxy-2-(2,2,2-trifluoroethyl)phenyl]-N-{6-[(2-hydroxyethyl)amino]pyridin-3-yl}-4-({5-hydroxy-2-[methyl(methylsulfonyl)amino]benzyl}amino)-1H-pyrazolo[4,3-c]pyridine-3-carboxamide]	1350	–	–	–	–	–
CCN(c1ccc(O)cc1CNc1nc(-c2cc(F)c(O)cc2CC(F)(F)F)nc2[nH]nc(C(=O)NC)c12)S(=O)(=O)c1ccccc1 [Example 105, 4-((2-(N-Ethylphenylsulfonamido)-5-hydroxybenzyl)amino)-6-(5-fluoro-4-hydroxy-2-(2,2,2-trifluoroethyl)phenyl)-N-methyl-1H-pyrazolo[3,4-d]pyrimidine-3-carboxamide]	7020	–	–	–	–	–
CCN(c1ccccc1CNc1nc(-c2cc(F)c(O)cc2CC(F)(F)F)cc2[nH]nc(C(=O)NC)c12)S(C)(=O)=O [Example 12, 4-({2-[ethyl(methylsulfon-yl)amino]benzyl}ami-no)-6-[5-fluoro-4-hydroxy-2-(2,2,2-trifluoroethyl)phenyl]-N-methyl-1H-pyrazolo[4,3-c]pyridine-3-carboxamide]	–	–	–	–	–	44.9
CNC(=O)c1n[nH]c2cc(-c3cc(F)c(O)cc3CC(F)(F)F)nc(NCc3cc(Cl)ccc3N(C)S(C)(=O)=O)c12 [Example 15, 4-({5-chloro-2-[methyl(methyl-sulfonyl)amino]benzyl}amino)-6-[5-fluoro-4-hydroxy-2-(2,2,2-trifluoroethyl)phenyl]-N-methyl-1H-pyrazolo[4,3-c]pyridine-3-carboxamide]	–	13.6	55	342	618	–
CNC(=O)c1n[nH]c2cc(-c3cc(F)c(O)cc3CC(F)(F)F)nc(NCc3ccccc3N(C)S(=O)(=O)c3cn[nH]c3)c12 [Example 58, 6-(5-fluoro-4-hydroxy-2-(2,2,2-trifluoroethyl)phenyl)-N-methyl-4-((2-(N-methyl-1H-pyrazole-4-sulfonamido)benzyl)amino)-1H-pyrazolo[4,3-c]pyridine-3-carboxamide]	–	10.3	54.4	236	67.5	–
CCc1cc(O)c(F)cc1-c1cc2[nH]nc(C(=O)NC)c2c(N[C@@H](C)c2ccccc2N(C)S(C)(=O)=O)n1 [Example 39, 6-(2-Ethyl-5-fluoro-4-hydroxyphenyl)-N-methyl-4-{[(1S)-1-{2-[methyl(methylsulfonyl)amino]phenyl}ethyl]amino}-1H-pyrazolo[4,3-c]pyridine-3-carboxamide]	–	32.3	48.2	278	320	–
CCN(c1ccc(O)cc1CNc1nc(-c2cc(F)c(O)cc2CC(F)(F)F)cc2[nH]nc(C(N)=O)c12)S(=O)(=O)c1ccccc1 [Example 43, 4-({2-[ethyl(phenyl-sulfonyl)amino]-5-hydroxybenzyl}amino)-6-[5-fluoro-4-hydroxy-2-(2,2,2-trifluoroethyl)-phenyl]-1H-pyrazolo[4,3-c]pyridine-3-carboxamide]	–	55.1	302	1070	439	–
CCc1cc(O)c(F)cc1-c1cc2[nH]nc(C(=O)Nc3ccc(C)nc3)c2c(NCc2ccccc2N(C)S(C)(=O)=O)n1 [Example 56, 6-(2-ethyl-5-fluoro-4-hydroxy-phenyl)-4-({2-[methyl(methylsulfonyl)amino]benzyl}amino)-N-(6-methylpyridin-3-yl)-1H-pyrazolo[4,3-c]pyridine-3-carboxamide]	–	6.6	26.1	135	19.9	–
CCc1cc(O)c(F)cc1-c1cc2[nH]nc(-n3cccn3)c2c(NCc2ccccc2N(C)S(C)(=O)=O)n1 [Example 162, N-[2-({[6-(2-Ethyl-5-fluoro-4-hydroxyphenyl)-3-(1H-pyrazol-1-yl)-1H-pyrazolo[4,3-c]pyridin-4-yl]amino}methyl)phenyl]-N-methylmethanesulfonamide]	–	4.1	23.6	90.6	15.4	–
CCc1cc(O)c(F)cc1-c1cc2[nH]nc(-c3ncc[nH]3)c2c(NCc2ccccc2N(C)S(C)(=O)=O)n1 [Example 157, N-[2-({[6-(2-Ethyl-5-fluoro-4-hydroxyphenyl)-3-(1H-imidazol-2-yl)-1H-pyrazolo[4,3-c]pyridin-4-yl]amino}methyl)phenyl]-N-methylmethanesulfonamide]	–	3.4	15	76.5	11.7	–

The next lines start with results.

IC50 ([1]; Homo sapiens) [nM]	IC50 (JAK1) [nM]	IC50 (JAK2) [nM]	IC50 (JAK3) [nM]	IC50 (TYK2) [nM]	SMILES	IC50 [1] [nM]
–	1.9	9.6	47.5	6.8	CCc1cc(O)c(F)cc1-c1cc2[nH]nc(C(=O)NC)c2c(NCc2ccccc2N(C)S(=O)(=O)CC)n1 [Example 3, 6-(2-ethyl-5-fluoro-4-hydroxy-phenyl)-4-({2-[(ethylsulfonyl)-(methyl)amino]benzyl}amino)-N-methyl-1H-pyrazolo[4,3-c]pyridine-3-carboxamide]	–
–	2	8.4	27.4	13.9	CCc1cc(O)c(F)cc1-c1nc(NCc2ccccc2N(C)S(C)(=O)=O)c2c(C(=O)NC)n[nH]c2n1 [Example 93, 6-(2-Ethyl-5-fluoro-4-hydroxyphenyl)-N-methyl-4-((2-(N-methylmethylsulfonamido)benzyl)amino)-1H-pyrazolo[3,4-d]pyrimidine-3-carboxamide]	–
–	2.9	14.4	39.5	278	CN(c1ncccc1CNc1nc(-c2cc(F)c(O)cc2CC(F)(F)F)cc2[nH]nc(C(N)=O)c12)S(C)(=O)=O [Example 62, 6-[5-fluoro-4-hydroxy-2-(2,2,2-trifluoroethyl)phenyl]-4-[({2-[methyl(methyl-sulfonyl)amino]pyridin-3-yl}methyl)amino]-1H-pyrazolo[4,3-c]pyridine-3-carboxamide]	–
–	2.9	15	46.3	109	CCN(c1ncccc1CNc1nc(-c2cc(F)c(O)cc2CC(F)(F)F)cc2[nH]nc(C(N)=O)c12)S(C)(=O)=O [Example 52, 4-[({2-[ethyl(methyl-sulfonyl)-amino]pyridin-3-yl}methyl)amino]-6-[5-fluoro-4-hydroxy-2-(2,2,2-trifluoroethyl)phenyl]-1H-pyrazolo[4,3-c]pyridine-3-carboxamide]	–
–	1.3	7	33	4.6	CCc1cc(O)c(F)cc1-c1cc2[nH]nc(C(=O)NC)c2c(NCc2cc(O)ccc2N(C)S(C)(=O)=O)n1 [Example 31, 6-(2-Ethyl-5-fluoro-4-hydroxyphenyl)-4-({5-hydroxy-2-[methyl(methylsulfonyl)amino]benzyl}amino)-N-methyl-1H-pyrazolo[4,3-c]pyridine-3-carboxamide]	–
–	1.8	6.3	22.8	146	CN(c1ccccc1CNc1nc(-c2cc(F)c(O)cc2CC(F)(F)F)cc2[nH]ncc12)S(C)(=O)=O [Example 148, N-{2-[({6-[5-Fluoro-4-hydroxy-2-(2,2,2-trifluoroethyl)phenyl]-1H-pyrazolo[4,3-c]pyridin-4-yl}amino)methyl]phenyl}-N-methylmethanesulfonamide]	–
–	< 0.5	2.1	10.2	4.7	CCc1cc(O)c(F)cc1-c1cc2[nH]ncc2c(NCc2ccccc2N(C)S(C)(=O)=O)n1 [Example 131, N-[2-({[6-(2-Ethyl-5-fluoro-4-hydroxyphenyl)-1H-pyrazolo[4,3-c]pyridin-4-yl]amino}methyl)phenyl]-N-methylmethanesulfonamide]	–
